# Laboratory results as given in patent publication US20220313701A1, “MODULATORS OF TREX1” (Constellation Pharmaceuticals, Inc., priority 2019, published 2022).
# pIC50: −log10 of the molar value.
# Assays:
# [1] = biological target: T1, full length human TREX1 (Homo sapiens, UniProt Q9NSU2); assay: TREX1 Biochemical Assay (fluorescence assay, degradation of dsDNA substrate); settings: 150 pM TREX1, 60 nM dsDNA substrate, 25 minutes at room temperature
# T1 construct: N-terminally His-Tev tagged full length human TREX1; His-Tev (His tag with TEV site) (N); made in house; host or cells: E. coli
# T1 sequence (Q9NSU2 1-314): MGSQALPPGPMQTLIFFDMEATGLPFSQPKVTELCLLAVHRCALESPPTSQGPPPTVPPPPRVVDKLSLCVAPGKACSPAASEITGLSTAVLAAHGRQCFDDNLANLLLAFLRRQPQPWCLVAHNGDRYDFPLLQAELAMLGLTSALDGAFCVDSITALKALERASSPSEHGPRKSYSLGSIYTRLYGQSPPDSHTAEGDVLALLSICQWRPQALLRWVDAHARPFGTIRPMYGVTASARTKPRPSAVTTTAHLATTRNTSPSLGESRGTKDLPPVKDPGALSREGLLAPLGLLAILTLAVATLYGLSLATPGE
# How it was run: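 N-terminally His-Tev-tagged enzyme expressed in E. coli, 150 pM, with 60 nM dual-labelled dsDNA (TEX615/quencher) in pH 7.4 Tris buffer with MgCl2, 1% DMSO; 10-point dose-response, 25 min at room temperature, then EDTA quench. Fluorescence at 615 nm (excitation 570 nm); IC50 from four-parameter fit against pre-quenched and no-inhibitor controls.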
# [2] = biological target: T2, human TREX2 (residues M44-A279) (Homo sapiens, UniProt Q9BQ50); assay: TREX2 Biochemical Assay (fluorescence assay, degradation of dsDNA substrate); settings: 2.5 nM TREX2, 60 nM dsDNA substrate, 25 minutes at room temperature
# T2 construct: human TREX2 (residues M44-A279, expressed in E. coli); His-Tev (His tag with TEV site) (N); made in house; host or cells: E. coli
# T2 sequence (Q9BQ50 44-279 isoform Q9BQ50-1): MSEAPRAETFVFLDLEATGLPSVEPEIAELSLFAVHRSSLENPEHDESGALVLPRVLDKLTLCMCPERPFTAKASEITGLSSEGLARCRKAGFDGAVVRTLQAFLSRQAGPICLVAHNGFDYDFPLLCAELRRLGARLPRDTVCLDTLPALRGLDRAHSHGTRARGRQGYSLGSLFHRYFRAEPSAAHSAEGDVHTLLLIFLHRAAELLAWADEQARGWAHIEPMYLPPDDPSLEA
# How it was run: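 Final conditions: 2.5 nM His-Tev-tagged TREX2 (E. coli-expressed), 60 nM fluorophore/quencher-labelled dsDNA, 50 mM Tris pH 7.4, 150 mM NaCl, 100 mM MgCl2, 1% DMSO; 10-point compound dose-response. Incubated 25 min at room temperature, then EDTA-quenched; fluorescence read at ex 570/em 615 nm. IC50 from four-parameter fit against pre-quenched and no-inhibitor controls.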
pIC50 [1],pIC50 [2],SMILES
6.00 to 7.00,< 4.00,"Cc1nc(-c2cn(C)nc2-c2ccccc2)cc(N2CCC(O)(c3ccc(F)c(F)c3)CC2)n1 [Example 100, 4-(3,4-difluorophenyl)-1-(2-methyl-6-(1-methyl-3-phenyl-1H-pyrazol-4-yl)pyrimidin-4-yl)piperidin-4-ol]"
6.00 to 7.00,< 4.00,"Cc1nc(-c2cn(C)nc2Cc2ccccc2)cc(N2CCC(O)(c3ccc(F)c(F)c3)CC2)n1 [Example 101, 1-(6-(3-benzyl-1-methyl-1H-pyrazol-4-yl)-2-methylpyrimidin-4-yl)-4-(3,4-difluorophenyl)piperidin-4-ol]"
5.00 to 6.00,< 4.00,"Cc1nc(N2CCC(O)(c3ccc(F)c(F)c3)CC2)cc(N2CCOC[C@H]2c2ccccc2)n1 [Example 104, (R)-4-(3,4-difluorophenyl)-1-(2-methyl-6-(3-phenylmorpholino)pyrimidin-4-yl)piperidin-4-ol]"
5.00 to 6.00,< 4.00,"Cc1nc(N2CCC(O)(c3ccc(F)c(F)c3)CC2)cc(N2CCOC[C@@H]2c2ccccc2)n1 [Example 105, (S)-4-(3,4-difluorophenyl)-1-(2-methyl-6-(3-phenylmorpholino)pyrimidin-4-yl)piperidin-4-ol]"
5.00 to 6.00,< 4.00,"Cc1nc(N2CCC(O)(c3ccc(F)c(F)c3)CC2)cc(-n2ccnc2-c2ccccn2)n1 [Example 106, 4-(3,4-difluorophenyl)-1-(2-methyl-6-(2-(pyridin-2-yl)-1H-imidazol-1-yl)pyrimidin-4-yl)piperidin-4-ol]"
5.00 to 6.00,< 4.00,"Cc1nc(N2CCC(O)(c3ccc(F)c(F)c3)CC2)cc(-n2c(C)cnc2-c2ccccn2)n1 [Example 107, 4-(3,4-difluorophenyl)-1-(2-methyl-6-(5-methyl-2-(pyridin-2-yl)-1H-imidazol-1-yl)pyrimidin-4-yl)piperidin-4-ol]"
6.00 to 7.00,< 4.00,"Cc1nc(N2CCC(O)(c3ccc(F)c(F)c3)CC2)cc(N(C)C2(c3ccccn3)CC2)n1 [Example 108, 4-(3,4-difluorophenyl)-1-(2-methyl-6-(methyl(1-(pyridin-2-yl)cyclopropyl)amino)pyrimidin-4-yl)piperidin-4-ol]"
